According to US7723523B2, “Tetrahydropyridothiophenes” (4SC AG, priority 2004, dated 2010):

How the values were obtained:
[1] = tested on: RKO colon adenocarcinoma cells (RKOp27) arrested by expression of ectopic p27Kip1; test: Alamar Blue cell viability assay on RKOp27 cells arrested by Ponasterone A-induced p27Kip1 (cell cycle specific mode of action); type: cell-based; settings: Homo sapiens, RKOp27, 72 h, cells arrested by p27Kip1 induced with 10 μM Ponasterone A, 72 hours incubation, read-out: IC50 RKO p27 arrested
Procedure: To determine the cell cycle specific mode of action, subclones of RKO colon adenocarcinoma cells (RKOp27 or RKOp21 as described by Schmidt et al. in Oncogene 19, 2423-2429; 2000) are seeded into 96 well flat bottom plates at a density of 16000 cells per well in a volume of 50 μl per well in DMEM growth medium with 10% FCS containing 10 μM Ponasterone A. 24 hours after seeding 50 μl each of the compound dilutions in DMEM are added into each well of the 96 well plate. Each compound dilution is tested as quadruplicates. Wells containing untreated control cells are filled with 50 μl DMEM containing 1% DMSO. The cells are then incubated with the substances for 72 hours at 37° C. in a humidified atmosphere containing 5% carbon dioxide. To determine the viability of the cells, 10 μl of an Alamar Blue solution (Biosource) are added and the fluorescence is measured at an extinction of 544 nm and an emission of 590 nm. For the calculation of the cell viability the emission value from untreated cells is set as 100% viability and the emission rates of treated cells are set in relation to the values of untreated cells. Viabilities are expressed as % values. Viability is compared of proliferating cells grown in the absence of the inducer Ponasterone A, versus viability of cells arrested by the expression of ectopic p27Kip1 induced by Ponasterone A. The data of this experimental setting are summarized in table A (2nd column).

[2] = tested on: RKO (RKOp27) human colon adenocarcinoma cells; test: Alamar Blue cell viability assay, anti-proliferative/cytotoxic activity on proliferating RKOp27 cells; type: cell-based; settings: absence of Ponasterone A, 72 hours incubation, read-out: IC50 RKO p27 proliferating
Procedure: The anti-proliferative/cytotoxic activity of the compounds described herein, can be tested on subclones of RKO (RKOp27) human colon adenocarcinoma cells (Schmidt et al., Oncogene 19, 2423-2429; 2000) using the Alamar Blue cell viability assay (described in O'Brien et al. Eur J Biochem 267, 5421-5426, 2000). The compounds are dissolved as 20 mM solutions in dimethylsulfoxide (DMSO) and subsequently diluted in semi-logarithmic steps. DMSO dilutions are further diluted 1:100 into Dulbecco's modified Eagle's medium (DMEM) containing 10% fetal calf serum to a final concentration twice as much as the final concentration in the test. RKO subclones are seeded into 96 well flat bottom plates at a density of 4000 cells per well in a volume of 50 μl per well. 24 hours after seeding 50 μl each of the compound dilutions in DMEM are added into each well of the 96 well plate. Each compound dilution is tested as quadruplicates. Wells containing untreated control cells are filled with 50 μl DMEM containing 1% DMSO. The cells are then incubated with the substances for 72 hours at 37° C. in a humidified atmosphere containing 5% carbon dioxide. To determine the viability of the cells, 10 μl of an Alamar Blue solution (Biosource) are added and the fluorescence is measured at an extinction of 544 nm and an emission of 590 nm. For the calculation of the cell viability the emission value from untreated cells is set as 100% viability and the emission rates of treated cells are set in relation to the values of untreated cells. Viabilities are expressed as % values.
The corresponding IC50 values of the compounds for anti-proliferative/cytotoxic activity are determined from the concentration-effect curves.
Representative IC50 values for anti-proliferation/cytotoxicity determined in the aforementioned assay are described in the table A (1st column), in which the numbers of the compound correspond to the numbers of the examples.

Compound | IC50 [1] [µM] | IC50 [2] [nM]
CC(C)(C)OC(=O)N1CCc2c(sc(NC(=O)/C=C/c3ccccc3)c2C#N)C1 [Example 2, N-(6-tert-Butoxycarbonyl-3-cyano-4,5,6,7-tetrahydro-thieno[2,3-c]pyridin-2-yl)-3-phenyl-acrylamide] | > 100 | ≤ 2000
CCOC(=O)N1CCc2c(sc(NC(=O)/C=C/c3cccc(OC)c3OC)c2C#N)C1 [Example 20, 3-Cyano-2-[(E)-3-(2,3-dimethoxy-phenyl)-allanoylamino]-4,7-dihydro-5H-thieno[2,3-c]pyridine-6-carboxylic acid ethyl ester] | > 100 | ≤ 2000
CCOC(=O)N1CCc2c(sc(NC(=O)/C=C/c3cccc(F)c3)c2C#N)C1 [Example 21, 3-Cyano-2-[(E)-3-(3-fluoro-phenyl)-allanoylamino]-4,7-dihydro-5H-thieno[2,3-c]pyridine-6-carboxylic acid ethyl ester] | > 100 | ≤ 2000
CCOC(=O)N1CCc2c(sc(NC(=O)/C=C/c3ccccc3C(F)(F)F)c2C#N)C1 [Example 23, 3-Cyano-2-[(E)-3-(2-trifluoromethyl-phenyl)-allanoylamino]-4,7-dihydro-5H-thieno[2,3-c]pyridine-6-carboxylic acid ethyl ester] | > 100 | ≤ 2000
CCOC(=O)N1CCc2c(sc(NC(=O)/C=C/c3ccccc3OC)c2C#N)C1 [Example 24, 3-Cyano-2-[(E)-3-(2-methoxy-phenyl)-allanoylamino]-4,7-dihydro-5H-thieno[2,3-c]pyridine-6-carboxylic acid ethyl ester] | > 100 | ≤ 2000
CCOC(=O)N1CCc2c(sc(NC(=O)/C=C/c3ccc(N(C)C)cc3)c2C#N)C1 [Example 26, 3-Cyano-2-[(E)-3-(4-dimethylamino-phenyl)-allanoylamino]-4,7-dihydro-5H-thieno[2,3-c]pyridine-6-carboxylic acid ethyl ester] | > 100 | ≤ 2000
CCOC(=O)N1CCc2c(sc(NC(=O)/C=C/c3ccc(C)cc3)c2C#N)C1 [Example 27, 3-Cyano-2-((E)-3-p-tolyl-allanoylamino)-4,7-dihydro-5H-thieno[2,3-c]pyridine-6-carboxylic acid ethyl ester] | > 100 | ≤ 2000
CCOC(=O)N1CCc2c(sc(NC(=O)/C=C/c3ccc(Cl)cc3Cl)c2C#N)C1 [Example 28, 3-Cyano-2-[(E)-3-(2,4-dichloro-phenyl)-allanoylamino]-4,7-dihydro-5H-thieno[2,3-c]pyridine-6-carboxylic acid ethyl ester] | > 100 | ≤ 2000
CCOC(=O)N1CCc2c(sc(NC(=O)/C=C/c3cccc([N+](=O)[O-])c3)c2C#N)C1 [Example 29, 3-Cyano-2-[(E)-3-(3-nitro-phenyl)-allanoylamino]-4,7-dihydro-5H-thieno[2,3-c]pyridine-6-carboxylic acid ethyl ester] | > 100 | ≤ 2000
CCOC(=O)N1CCc2c(sc(NC(=O)/C=C/c3ccc4c(c3)OCO4)c2C#N)C1 [Example 30, 2-((E)-3-Benzo[1,3]dioxol-5-yl-allanoylamino)-3-cyano-4,7-dihydro-5H-thieno[2,3-c]pyridine-6-carboxylic acid ethyl ester] | > 100 | ≤ 2000
CC(C)(C)OC(=O)N1CCc2c(sc(NC(=O)/C=C/c3cccnc3)c2C#N)C1 [Example 32, 3-Cyano-2-((E)-3-pyridin-3-yl-allanoylamino)-4,7-dihydro-5H-thieno[2,3-c]pyridine-6-carboxylic acid tert-butyl ester] | > 100 | ≤ 2000
CCCC(=O)N1CCc2c(sc(NC(=O)/C=C/c3ccccc3)c2C#N)C1 [Example 33, (E)-N-(6-Butyryl-3-cyano-4,5,6,7-tetrahydro-thieno[2,3-c]pyridin-2-yl)-3-phenyl-acrylamide] | > 100 | ≤ 2000
CC(=O)N1CCc2c(sc(NC(=O)/C=C/c3ccccc3)c2C#N)C1 [Example 34, (E)-N-(6-Acetyl-3-cyano-4,5,6,7-tetrahydro-thieno[2,3-c]pyridin-2-yl)-3-phenyl-acrylamide] | > 100 | ≤ 2000
CCSC(=O)N1CCc2c(sc(NC(=O)/C=C/c3ccccc3)c2C#N)C1 [Example 35, 3-Cyano-2-((E)-3-phenyl-allanoylamino)-4,7-dihydro-5H-thieno[2,3-c]pyridine-6-carbothioic acid S-ethyl ester] | > 100 | ≤ 2000

The next lines start with results.

IC50 [1] [µM] | Compound | IC50 [2] [nM]
> 100 | CCOC(=O)N1CCc2c(sc(NC(=O)/C=C/c3ccccc3)c2C#N)C1 [Example 1, N-(6-Ethoxycarbonyl-3-cyano-4,5,6,7-tetrahydro-thieno[2,3-c]pyridin-2-yl)-3-phenyl-acrylamide] | < 1000
> 100 | CCOC(=O)N1CCc2c(sc(NC(=O)/C=C/c3ccccc3Cl)c2C#N)C1 [Example 4, N-(6-Ethoxycarbonyl-3-cyano-4,5,6,7-tetrahydro-thieno[2,3-c]pyridin-2-yl)-3-(2-chlorophenyl)-acrylamide] | ≤ 2000
> 100 | CCOC(=O)N1CCc2c(sc(NC(=O)/C=C/c3cccnc3)c2C#N)C1 [Example 7, N-(6-Ethoxycarbonyl-3-cyano-4,5,6,7-tetrahydro-thieno[2,3-c]pyridin-2-yl)-3-pyridyl-acrylamide] | ≤ 2000
> 100 | CCOC(=O)N1CCc2c(sc(NC(=O)/C=C/c3cccs3)c2C#N)C1 [Example 8, 3-Cyano-2-((E)-3-thiophen-2-yl-allanoylamino)-4,7-dihydro-5H-thieno[2,3-c]pyridine-6-carboxylic acid ethyl ester] | ≤ 2000
> 100 | CCOC(=O)N1CCc2c(sc(NC(=O)/C=C/c3ccsc3)c2C#N)C1 [Example 9, 3-Cyano-2-((E)-3-thiophen-3-yl-allanoylamino)-4,7-dihydro-5H-thieno[2,3-c]pyridine-6-carboxylic acid ethyl ester] | ≤ 2000
> 100 | CCOC(=O)N1CCc2c(sc(NC(=O)/C=C/c3ccco3)c2C#N)C1 [Example 10, 3-Cyano-2-((E)-3-furan-2-yl-allanoylamino)-4,7-dihydro-5H-thieno[2,3-c]pyridine-6-carboxylic acid ethyl ester] | ≤ 2000
> 100 | CCOC(=O)N1CCc2c(sc(NC(=O)/C=C/c3ccoc3)c2C#N)C1 [Example 11, 3-Cyano-2-((E)-3-furan-3-yl-allanoylamino)-4,7-dihydro-5H-thieno[2,3-c]pyridine-6-carboxylic acid ethyl ester] | ≤ 2000
> 100 | CCOC(=O)N1CCc2c(sc(NC(=O)/C=C/c3ccccc3C)c2C#N)C1 [Example 12, 3-Cyano-2-((E)-3-o-tolyl-allanoylamino)-4,7-dihydro-5H-thieno[2,3-c]pyridine-6-carboxylic acid ethyl ester] | ≤ 2000
> 100 | CCOC(=O)N1CCc2c(sc(NC(=O)/C=C/c3cccc(Cl)c3)c2C#N)C1 [Example 13, 2-[(E)-3-(3-Chloro-phenyl)-allanoylamino]-3-cyano-4,7-dihydro-5H-thieno[2,3-c]pyridine-6-carboxylic acid ethyl ester] | ≤ 2000
> 100 | CCOC(=O)N1CCc2c(sc(NC(=O)/C=C/c3cccc(C)c3)c2C#N)C1 [Example 16, 3-Cyano-2-((E)-3-m-tolyl-allanoylamino)-4,7-dihydro-5H-thieno[2,3-c]pyridine-6-carboxylic acid ethyl ester] | ≤ 2000
> 100 | CCOC(=O)N1CCc2c(sc(NC(=O)/C=C/c3cccc(OC)c3)c2C#N)C1 [Example 19, 3-Cyano-2-[(E)-3-(3-methoxy-phenyl)-allanoylamino]-4,7-dihydro-5H-thieno[2,3-c]pyridine-6-carboxylic acid ethyl ester] | ≤ 2000
